We go through five compounds from article PMC3161826 (Journal of nuclear medicine : official publication, Society …, 2010).

“And” between values parts separate entries of the source, which are not always exact repeats. Equal entries are not always repeated. Where two headings read alike, the source gives them in different places.

Assay [1] relates to 18-kDa translocator protein (TSPO). Briefly: Competition binding assay with 3H-PK11195 in human brain tissue membranes. As to conditions: for Ki ratio of LAB to HAB / Ki: brain tissue donors B1–B15; for Ki: read-out: Ki, MABs (single-site model), mixed-affinity binders, mean ± SEM.
Assay [2] addresses T1, 18-kDa translocator protein (TSPO) (Homo sapiens, UniProt P30536). Described as above.
For assay [3], the target named is T1, 18-kDa translocator protein (TSPO). Type of assay: binding. As to conditions: for Ki: unlabeled PBR28 50 nM in each well.
Assay [4] deals with 18-kDa translocator protein (TSPO). As to conditions: brain tissue donors B1–B15; ref Owen et al. ([6]); cited from earlier work.
In assay [5] the test system is 18-kDa translocator protein (TSPO). Type of assay: binding, human. As to conditions: platelets, healthy volunteers.
Assay [6] deals with T1, 18-kDa translocator protein (TSPO). The format is binding. As to conditions: read-out: Ki, HABs; platelets, healthy volunteers P1–P13; single class of high-affinity sites, 9 of 13.
Target sequence in this assay (P30536 2-169): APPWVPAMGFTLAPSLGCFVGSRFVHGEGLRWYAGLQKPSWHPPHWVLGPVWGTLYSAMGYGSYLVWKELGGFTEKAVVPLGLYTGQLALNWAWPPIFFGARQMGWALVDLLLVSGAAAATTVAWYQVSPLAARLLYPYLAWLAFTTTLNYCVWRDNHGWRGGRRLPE
[7] abbreviates: read-out: Ki, HABs, high-affinity binders, brain tissue donors B1–B15, mean ± SEM.
Setting [8] is: read-out: Ki, LABs, low-affinity binders, brain tissue donors B1–B15, mean ± SEM.

In the case of `CCN(CC)C(=O)Cc1c(-c2ccc(OC)cc2)nn2c(C)cc(C)nc12` [DPA713], the “Difference in affinity between HABs and LABs” value (from here on “Difference”) in assay [1] (brain tissue) is ~ 4 fold and < 5 fold.
`COc1ccc(OC)c(CN(C(=O)CF)c2ccccc2Oc2ccccc2)c1` [PBR06]: the “Ki ratio of LAB to HAB” value in assay [1] is recorded as 17. The Ki (in general, a measure of affinity in units of concentration, obtained from inhibition or displacement) stood at 8.6 ± 2 nM in assay [2] (setting [7]) and 149 ± 46.6 nM in assay [2] (setting [8]).
As for `CCN(CC)C(=O)Cc1c(-c2ccc(OCCCF)cc2)nc2ccc(Cl)cn12` [PBR111], the “Difference” value in assay [1] (brain tissue) was ~ 4 fold and < 5 fold. Also, the “Ki ratio of LAB to HAB” value in assay [1] was found to be 4.0. Also, the Ki in assay [1] is 30.3 ± 4.1 nM; in assay [2] (setting [7]) it was 15.6 ± 3.7 nM; in assay [2] (setting [8]), 61.8 ± 10.7 nM; in assay [3] (read-out: Ki after block with PBR28 (50 nM), LABs, low-affinity binders) it was 51.7 ± 12.2 nM; in assay [3] (read-out: Ki after block with PBR28 (50 nM), MABs, mixed-affinity binders), 54.4 ± 5.3 nM.
As to `COc1ccc(OC)c(CN(C(C)=O)c2cc(F)ccc2Oc2ccccc2)c1` [DAA1106], in assay [1] (brain tissue), the “Difference” value was ~ 4 fold and ~ 5 fold and < 5 fold. Further, in assay [1], the “Ki ratio of LAB to HAB” value is 4.7. Moreover, the results for the Ki in assay [1], in assay [2] (setting [7]) and in assay [2] (setting [8]) were 4.8 ± 0.4 nM, 2.8 ± 0.3 nM and 13.1 ± 1.3 nM, respectively.
With `COc1ccccc1CN(C(C)=O)c1cnccc1Oc1ccccc1` [PBR28, N-{[2-(methyloxy)phenyl]methyl}-N-[4-(phenyloxy)-3-pyridinyl]acetamide], the “Ki ratio of LAB to HAB” value in assay [4] is given as 55. Moreover, the “Mean fraction of high-affinity sites in MABs” value in assay [5] was 63% ± 9.8; in assay [1] (brain tissue, donors with no history of neurologic disease), 58% ± 6.6. Moreover, the inhibition constant Ki was determined as 3.1 ± 0.57 nM in assay [6]; 237 ± 35 nM in assay [2] (Ki, LABs, brain tissue, donors with no history of neurologic disease (B14–B33), single class of low-affinity receptors, 4 of 20); 2.9 ± 0.26 nM in assay [2] (read-out: Ki, HABs, brain tissue, donors with no history of neurologic disease (B14–B33), single class of high-affinity receptors, 9 of 20). Also, the “Fraction of high-affinity sites in MABs, range of values” in assay [1] (brain tissue, range across MAB subjects) is given as 38% to 83. Further, the “Reduction (%) in specific signal after block with PBR28 (50 nM), HABs” value in assay [3] (PBR28 50 nM, 3H-PK11195 specific signal, HABs, 60 min, 0.05 µM) is 70% and 69.0 ± 4.6 (n = 4) %. In addition, the “Reduction (%) in specific signal after block with PBR28 (50 nM), LABs” value in assay [3] (PBR28 50 nM, 3H-PK11195 specific signal, LABs) was 21% and 21.2 ± 4.8 (n = 4) %. For the same compound, the “Occupancy of binding sites in HABs” value in assay [3] (PBR28 at 50 nM, expected occupancy) is given as “approximately 94%”. In addition, the receptor occupancy at 0.05 µM in assay [3] (read-out: Occupancy of binding sites in LABs) is ~21%.
